Data taken from patent US9796733B2, “Imidazo-pyrazine derivatives useful as soluble guanylate cyclase activators” (Merck Sharp & Dohme Corp., priority 2014, dated 2017).

Target: T1, sGC α1/β1 heterodimer (Homo sapiens, UniProt Q02108+Q02153)
T1 construct: expressed in transfected cells; host or cells: CHO-K1 (clone #7, CHO-K1/sGC)
T1 sequence (Q02108 1-690): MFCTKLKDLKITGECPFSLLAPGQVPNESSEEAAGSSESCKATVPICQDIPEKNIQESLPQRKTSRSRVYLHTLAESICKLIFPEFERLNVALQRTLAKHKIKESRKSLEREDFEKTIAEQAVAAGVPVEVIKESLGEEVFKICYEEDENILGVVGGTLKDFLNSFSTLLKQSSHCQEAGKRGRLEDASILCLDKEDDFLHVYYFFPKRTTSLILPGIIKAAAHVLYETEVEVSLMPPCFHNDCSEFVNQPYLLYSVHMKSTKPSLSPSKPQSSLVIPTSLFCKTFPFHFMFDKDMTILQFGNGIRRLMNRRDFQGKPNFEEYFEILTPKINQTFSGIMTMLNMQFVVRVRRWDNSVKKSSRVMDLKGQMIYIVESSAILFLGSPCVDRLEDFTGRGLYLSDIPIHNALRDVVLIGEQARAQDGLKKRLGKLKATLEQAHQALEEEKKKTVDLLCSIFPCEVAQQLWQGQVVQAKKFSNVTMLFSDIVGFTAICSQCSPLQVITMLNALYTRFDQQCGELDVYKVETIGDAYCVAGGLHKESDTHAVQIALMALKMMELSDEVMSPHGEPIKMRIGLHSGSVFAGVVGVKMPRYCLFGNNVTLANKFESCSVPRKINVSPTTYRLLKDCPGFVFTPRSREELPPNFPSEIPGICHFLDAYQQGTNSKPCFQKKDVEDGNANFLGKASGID
T1 sequence (Q02153 1-619): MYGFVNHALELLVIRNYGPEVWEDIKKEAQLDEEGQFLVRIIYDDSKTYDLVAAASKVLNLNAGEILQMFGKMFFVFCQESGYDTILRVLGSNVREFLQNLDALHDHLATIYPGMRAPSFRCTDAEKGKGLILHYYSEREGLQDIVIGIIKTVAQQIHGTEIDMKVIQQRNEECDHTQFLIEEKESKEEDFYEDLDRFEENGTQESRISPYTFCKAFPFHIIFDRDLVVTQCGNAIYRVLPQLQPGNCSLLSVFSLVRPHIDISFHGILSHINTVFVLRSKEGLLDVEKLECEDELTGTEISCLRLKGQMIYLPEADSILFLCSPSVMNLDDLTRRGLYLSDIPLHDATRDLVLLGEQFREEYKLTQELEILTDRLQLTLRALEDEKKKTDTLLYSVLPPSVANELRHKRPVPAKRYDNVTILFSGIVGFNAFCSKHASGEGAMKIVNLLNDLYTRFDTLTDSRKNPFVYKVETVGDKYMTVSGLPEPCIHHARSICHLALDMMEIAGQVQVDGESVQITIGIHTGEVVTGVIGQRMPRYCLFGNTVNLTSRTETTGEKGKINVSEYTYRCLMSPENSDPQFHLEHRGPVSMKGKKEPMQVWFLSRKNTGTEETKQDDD
Assay: Cell-based sGC functional assay (CASA assay): cGMP generation in CHO-K1/sGC cells, HTRF detection
Settings: for Emax: CHO-K1, percent activation relative to standard Compound A in CHO-K1/sGC cells, read-out: % Act.; for EC50: inflection point (IP) of cGMP generation in CHO-K1/sGC cells, 4P fit, activity expressed as percentage of Compound A
Summary of the method: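 Stable CHO-K1/sGC cells in EBSS buffer with 5 mM MgCl2, 0.05% BSA and 0.5 mM IBMX were incubated with compound (2.5% DMSO final) ±1 μM DETA-NO for 1 hr at 37° C. cGMP was measured by HTRF. Activation is expressed as % of reference HDA Compound A maximum, with IP and max fold induction from a 4P fit.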

| Structure (SMILES) | Emax | EC50 | % Act. (percent activation relative to standard Compound A in CHO-K1/sGC cells) |
| --- | --- | --- | --- |
| CC1(C(=O)NC2CC2)C(=O)Nc2nc(-c3cn4cc(C(F)(F)F)nc4c(Cc4ccc(F)c(F)c4)n3)nc(N)c21 (centres unmarked) [Example 52A, 4-amino-N-cyclopropyl-2-(8-(3,4-difluorobenzyl)-2-(trifluoromethyl)imidazo[1,2-a]pyrazin-6-yl)-5-methyl-6-oxo-6,7-dihydro-5H-pyrrolo[2,3-d]pyrimidine-5-carboxamide] | 93% | 950 nM | – |
| CC(C)C1(C)C(=O)Nc2nc(-c3cn4ccnc4c(Cc4ccccc4)n3)nc(N)c21 (single isomer, unassigned) [Example 80B, 4-amino-2-(8-benzylimidazo[1,2-a]pyrazin-6-yl)-5-isopropyl-5-methyl-5H-pyrrolo[2,3-d]pyrimidin-6(7H)-one] | 88% | 253 nM | – |
| CC1(c2ccc(F)cc2)C(=O)Nc2nc(-c3cn4cc(C(F)(F)F)nc4c(CCC(F)(F)C(F)(F)F)n3)nc(N)c21 (centres unmarked) [Example 156A, 4-amino-5-(4-fluorophenyl)-5-methyl-2-(8-(3,3,4,4,4-pentafluorobutyl)-2-(trifluoromethyl)imidazo[1,2-a]pyrazin-6-yl)-5H-pyrrolo[2,3-d]pyrimidin-6(7H)-one] | 92% | 163 nM | – |
| CC1(c2ccc(Cl)cc2)C(=O)Nc2nc(-c3cn4cc(C(F)(F)F)nc4c(Cc4ccc(F)cc4)n3)nc(N)c21 (centres unmarked) [Example 153A, 4-amino-5-(4-chlorophenyl)-2-(8-(4-fluorobenzyl)-2-(trifluoromethyl)imidazo[1,2-a]pyrazin-6-yl)-5-methyl-5H-pyrrolo[2,3-d]pyrimidin-6(7H)-one] | 110% | 37 nM | – |
| CC1(c2ccc(F)cn2)C(=O)Nc2nc(-c3cn4ccnc4c(CCC(F)(F)C(F)(F)F)n3)nc(NC3CC3)c21 (centres unmarked) [Example 292B, 4-(cyclopropylamino)-5-(5-fluoropyridin-2-yl)-5-methyl-2-(8-(3,3,4,4,4-pentafluorobutyl)imidazo[1,2-a]pyrazin-6-yl)-5H-pyrrolo[2,3-d]pyrimidin-6(7H)-one] | 148% | 951 nM | – |
| CC1(c2ccc(F)cn2)C(=O)Nc2nc(-c3cn4c(Br)cnc4c(CCC(F)(F)C(F)(F)F)n3)nc(N)c21 (centres unmarked) [Example 262B, 4-Amino-2-(3-bromo-8-(3,3,4,4,4-pentafluorobutyl)imidazo[1,2-a]pyrazin-6-yl)-5-(5-fluoropyridin-2-yl)-5-methyl-5H-pyrrolo[2,3-d]pyrimidin-6(7H)-one] | 105% | 236 nM | – |
| COc1ccc(C2(C3CC3)C(=O)Nc3nc(-c4cn5ccnc5c(CCC(F)(F)C(F)(F)F)n4)nc(N)c32)cn1 (centres unmarked) [Example 343A, 4-amino-5-cyclopropyl-5-(6-methoxypyridin-3-yl)-2-(8-(3,3,4,4,4-pentafluorobutyl)imidazo[1,2-a]pyrazin-6-yl)-5H-pyrrolo[2,3-d]pyrimidin-6(7H)-one] | 121% | 46 nM | – |
| CC1(c2ccccc2)C(=O)Nc2nc(-c3cn4ccnc4c(Cc4cccc(F)c4)n3)nc(N)c21 (centres unmarked) [Example 101B, 4-amino-2-(8-(3-fluorobenzyl)imidazo[1,2-a]pyrazin-6-yl)-5-methyl-5-phenyl-5H-pyrrolo[2,3-d]pyrimidin-6(7H)-one] | 116% | 34 nM | – |
| CC1(C(=O)NC2CC2)C(=O)Nc2nc(-c3cn4ccnc4c(Cc4cccc(F)c4)n3)nc(N)c21 (single isomer, unassigned) [Example 36B, 4-amino-N-cyclopropyl-2-(8-(3-fluorobenzyl)imidazo[1,2-a]pyrazin-6-yl)-5-methyl-6-oxo-6,7-dihydro-5H-pyrrolo[2,3-d]pyrimidine-5-carboxamide] | – | 959 nM | 154% |
| Cc1cn2cc(-c3nc(N)c4c(n3)NC(=O)C4(C)c3ccc(F)cn3)nc(Cc3ccc(F)cc3)c2n1 (centres unmarked) [Example 162B, 4-amino-2-(8-(4-fluorobenzyl)-2-methylimidazo[1,2-a]pyrazin-6-yl)-5-(5-fluoropyridin-2-yl)-5-methyl-5H-pyrrolo[2,3-d]pyrimidin-6(7H)-one] | 88% | 168 nM | – |
| CC1(c2ccc(Cl)cc2)C(=O)Nc2nc(-c3cn4ccnc4cn3)nc(N3CCC(C(F)(F)F)CC3)c21 (centres unmarked) [Example 280A, 5-(4-chlorophenyl)-2-(imidazo[1,2-a]pyrazin-6-yl)-5-methyl-4-(4-(trifluromethyl)piperdin-1-yl)-5H-pyrrolo[2,3-d]pyrimidin-6(7H)-one] | 102% | 124 nM | – |
| CC1(C)C(=O)Nc2nc(-c3cn4c(Br)cnc4c(CCC(F)(F)C(F)(F)F)n3)nc(N)c21 [Example 263, 4-amino-2-(3-bromo-8-(3,3,4,4,4-pentafluorobutyl)imidazo[1,2-a]pyrazin-6-yl)-5,5-dimethyl-5H-pyrrolo[2,3-d]pyrimidin-6(7H)-one] | 20% | 314 nM | – |
| CC1(c2ccc(C(F)(F)F)cc2)C(=O)Nc2nc(-c3cn4ccnc4c(CCC(F)(F)C(F)(F)F)n3)nc(N)c21 (centres unmarked) [Example 237B, 4-amino-5-methyl-2-(8-(3,3,4,4,4-pentafluorobutyl)imidazo [1,2-a]pyrazin-6-yl)-5-(4-(trifluoromethyl)phenyl)-5H-pyrrolo[2,3-d]pyrimidin-6(7H)-one] | 119% | 53 nM | – |
| CCc1cn2cc(-c3nc(N)c4c(n3)NC(=O)C4(C)c3ccccc3)nc(CCC(F)(F)C(F)(F)F)c2n1 (centres unmarked) [Example 160B, 4-amino-2-(2-ethyl-8-(3,3,4,4,4-pentafluorobutyl)imidazo [1,2-a]pyrazin-6-yl)-5-methyl-5-phenyl-5H-pyrrolo[2,3-d]pyrimidin-6(7H)-one] | 102% | 978 nM | – |
| COc1ccc(C2(C3CC3)C(=O)Nc3nc(-c4cn5ccnc5c(CCC(F)(F)C(F)(F)F)n4)nc(N)c32)nc1 (single isomer, unassigned) [Example 337A, 4-amino-5-cyclopropyl-5-(5-methoxypyridin-2-yl)-2-(8-(3,3,4,4,4-pentafluorobutyl)imidazo[1,2-a]pyrazin-6-yl)-5H-pyrrolo[2,3-d]pyrimidin-6(7H)-one] | 189% | 486 nM | – |
| Nc1nc(-c2cn3ccnc3cn2)nc2c1C(c1ccc(Cl)cc1)(C1CC1)C(=O)N2 (centres unmarked) [Example 146B, 4-amino-5-(4-chlorophenyl)-5-cyclopropyl-2-(imidazo[1,2-a]pyrazin-6-yl)-5H-pyrrolo[2,3-d]pyrimidin-6(7H)-one] | 95% | 461 nM | – |
| CC1(c2ccc(F)cc2)C(=O)Nc2nc(-c3cn4ccnc4c(Cc4ccccc4)n3)nc(N)c21 (centres unmarked) [Example 93A, 4-amino-2-(8-benzylimidazo[1,2-a]pyrazin-6-yl)-5-(4-fluorophenyl)-5-methyl-5H-pyrrolo[2,3-d]pyrimidin-6(7H)-one] | 109% | 12 nM | – |
| Cc1nc(C2(C3CC3)C(=O)Nc3nc(-c4cn5ccnc5c(CCCC(F)(F)F)n4)nc(N)c32)ccc1F (single isomer, unassigned) [Example 362B, 4-amino-5-cyclopropyl-5-(5-fluoro-6-methylpyridin-2-yl)-2-(8-(4,4,4-trifluorobutyl)imidazo[1,2-a]pyrazin-6-yl)-5H-pyrrolo[2,3-d]pyrimidin-6(7H)-one] | 140% | 384 nM | – |
| CC1(c2ccc(F)cc2)C(=O)Nc2nc(-c3cn4cc(C(F)(F)F)nc4c(Cc4ccccc4F)n3)nc(N)c21 (centres unmarked) [Example 147A, 4-amino-2-(8-(2-fluorobenzyl)-2-(trifluoromethyl)imidazo[1,2-a]pyrazin-6-yl)-5-(4-fluorophenyl)-5-methyl-5H-pyrrolo[2,3-d]pyrimidin-6(7H)-one] | 120% | 12 nM | – |
